Reference: PMC5884943, “Discovery of Novel Inhibitors of Indoleamine 2,3-Dioxygenase 1 Through Structure-Based Virtual Screening” (Frontiers in Pharmacology, 2018)

Biological target: T1, human IDO1 protein (Homo sapiens, UniProt P14902)
T1 construct: purchased ChemPartner Lot; No. 20160706
Assay: Enzymatic IDO1 assay (Absorbance 321 assay)
Format: biochemical
Settings: for Inhibition ratio (%) @ 20 μM / inhibition at 20 µM: 20 μM compound; for Avg_Inh (%) @ 50uM: average inhibition, Table S2; for Background (%): background signal of the compound in the absorbance assay; for inhibition at 20 µM: read-out: Inhibition ratio (%) @ 20 μM
Method: The standard assay mixture contained modified potassium phosphate buffer at pH 6.5, 100 μM L-tryptophan (Sigma, Cat. […] No. […]). […] Then the assay plate was read at OD321 kinetically in Spectramax. […] Fit the data in […]5.0 software to obtain IC50-values using Equation (2): (2) Y=Bottom+Top-Bottom/1+10^(logIC50-X)×HillSlope where Y stands for inhibition percentage and X stands for compound concentration. All determinations were carried out in duplicate.

T1 sequence (P14902 whole entry): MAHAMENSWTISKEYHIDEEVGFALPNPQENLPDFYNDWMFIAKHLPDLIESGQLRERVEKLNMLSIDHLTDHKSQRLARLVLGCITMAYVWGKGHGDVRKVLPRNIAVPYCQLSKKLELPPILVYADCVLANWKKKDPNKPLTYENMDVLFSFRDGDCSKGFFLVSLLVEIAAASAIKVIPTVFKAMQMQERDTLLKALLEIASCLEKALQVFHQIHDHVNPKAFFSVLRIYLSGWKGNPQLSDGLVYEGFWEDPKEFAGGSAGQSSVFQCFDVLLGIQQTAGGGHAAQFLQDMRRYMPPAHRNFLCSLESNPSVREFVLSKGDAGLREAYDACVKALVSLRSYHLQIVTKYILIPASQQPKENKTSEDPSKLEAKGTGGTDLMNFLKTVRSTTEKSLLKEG

| Avg_Inh (%) @ 50uM | Background (%) | SMILES | further results |
| --- | --- | --- | --- |
| 63.02% | 33.85% | Nc1ccc(Br)cc1C(O)c1ccc(Cl)cc1 (stereo not drawn) [DC-I032] | Inhibition ratio (%) @ 20 μM: 25.26% |
| 63.18% | 44.38% | O=C(COC(=O)c1ccc2ccccc2n1)c1ccc(Cl)cc1 [DC-I046] | Inhibition ratio (%) @ 20 μM: 28.10% |
| 85.60% | 60.62% | Cc1cc(-c2cccs2)c2c(N)c(C(=O)NCCc3c[nH]c4ccccc34)sc2n1 [DC-I079] | Inhibition ratio (%) @ 20 μM: 36.42% |
| 95.14% | 34.84% | O=C(CSc1nnc(COc2ccc(Cl)cc2Cl)o1)Nc1ccccn1 [DC-I090] | Inhibition ratio (%) @ 20 μM: 41.43% |
| 80.83% | 43.32% | Cc1cccc(-c2nnc(SCC(=O)Nc3c(C)cc(C)cc3C)o2)c1 [DC-I102] | Inhibition ratio (%) @ 20 μM: 15.17% |
| – | – | CC(=O)c1ccc(N2COc3ccc4ccccc4c3C2)cc1 [DC-I02801] | inhibition at 20 µM: 17.8% |
| – | – | CC(=O)Nc1cccc2ccc3c(c12)CN(Cc1ccccc1)CO3 [DC-I02803] | inhibition at 20 µM: -11.2%; IDO1 inhibitory activity (in words) (SAR discussion): inactive |
| – | – | O=C(NC(=S)Nc1c(O)ccc2ccccc12)c1ccccc1I [DC-I02807] | inhibition at 20 µM: 59.6%; IC50 (IDO1 enzymatic level): 25 µM |
| – | – | COc1ccc(C(=O)NC(=S)Nc2cccc3cc(O)ccc23)cc1OC [DC-I02809] | inhibition at 20 µM: 17.6% |
| – | – | O=C(NC(=S)Nc1cccc2cc(O)ccc12)c1ccco1 [DC-I02810] | inhibition at 20 µM: 15.6% |
| – | – | CCCCOc1cccc(-c2c(O)ccc3ccccc23)c1 [DC-I02811] | inhibition at 20 µM: 8.19% |
| – | – | CC(=O)N(C)c1ccc(-c2c(O)ccc3ccccc23)cc1 [DC-I02812] | inhibition at 20 µM: 4.69% |
| – | – | Oc1ccc2ccccc2c1Sc1nnnn1-c1ccccc1 [DC-I02813] | inhibition at 20 µM: 15.6% |
| -9.13% | 42.64% | Nc1ncnc2sc3c(c12)CCC3 [DCI-001] | – |
| 81.62% | 44.08% | c1ccc2cc(OCc3nc4ccccc4s3)ccc2c1 [DCI-002] | – |
| 35.38% | 51.94% | O=C(OCc1ccc(Cl)cc1)c1cc2ccccc2cc1O [DCI-003] | – |
| 49.29% | 38.90% | Clc1ccc2[nH]cc(-c3nnnn3-c3ccccc3)c2c1 [DCI-004] | – |
| 11.86% | 36.51% | COc1ccc(CNC(=O)COc2ccc3ccccc3c2)cc1 [DCI-005] | – |
| 2.62% | 34.97% | CC(=O)Nc1ccc(NC(=O)C2CC(=O)N(c3ccccc3)C2)cc1 (stereo not drawn) [DCI-006] | – |
| -0.85% | 44.80% | N#Cc1c(SCC(N)=O)nc2c(c1-c1cccnc1)CCC2 [DCI-007] | – |
| 22.90% | 42.25% | COc1cccc(-c2[nH]nc3c2C(c2ccccc2F)C(C#N)=C(N)O3)c1 (stereo not drawn) [DCI-008] | – |
| 12.24% | 52.98% | Nc1ccccc1/C=C1/C(=O)Nc2ccccc21 [DCI-009] | – |
| 18.26% | 46.13% | O=c1cnc2ccccc2n1Cc1cccc(Cl)c1 [DCI-010] | – |
| 2.22% | 51.96% | COc1ccc(/C=C\c2nccc3ccccc23)cc1OC [DCI-011] | – |
| 42.86% | 56.72% | Cc1cc(=O)oc2cc(OCCSc3ccccc3)ccc12 [DCI-012] | – |
| 4.76% | 38.66% | Cc1ccc(C)c(C(=O)CSc2ncnc3nc[nH]c23)c1 [DCI-013] | – |
| 28.34% | 41.98% | Cc1ccc(C(C)C)cc1C(=O)CC1(O)C(=O)N(C)c2ccc(Br)cc21 (stereo not drawn) [DCI-014] | – |

| Avg_Inh (%) @ 50uM | Background (%) | SMILES | further results |
| --- | --- | --- | --- |
| 20.11% | 40.12% | O=C(NCC1CCCO1)c1ccc(COc2ccc3ccccc3c2)cc1 (stereo not drawn) [DCI-015] | – |
| 5.08% | 38.92% | COc1ccc(C(N)=O)cc1NS(=O)(=O)c1cccc2cccnc12 [DCI-016] | – |
| 37.65% | 48.33% | Cc1sc2ncnc(SCC(=O)Nc3ccc(S(N)(=O)=O)cc3)c2c1C [DCI-017] | – |
| -2.06% | 34.42% | CC(O)CNCc1ccc(OCc2ccc3c(c2)OCCO3)cc1 (stereo not drawn) [DCI-018] | – |
| -8.21% | 33.33% | c1csc(CNCCCc2nc3ccccc3[nH]2)c1 [DCI-019] | – |
| 10.24% | 35.53% | Cc1cccc(C)c1N1CC(C(=O)Nc2cccc3ccccc23)CC1=O (stereo not drawn) [DCI-020] | – |
| -2.20% | 37.17% | CC1CCCN(C(C)CS(=O)(=O)c2ccc3ccccc3c2)C1 (stereo not drawn) [DCI-021] | – |
| 34.49% | 44.32% | COc1cc2c(cc1OC)C(c1ccc(Br)cc1)OCC2 (stereo not drawn) [DCI-022] | – |
| -2.26% | 53.84% | Cc1ccc(/C=N/Nc2nc3ccccc3[nH]c2=O)cc1 [DCI-023] | – |
| 45.39% | 56.24% | CC(C)c1ccc(O)c(C(=O)c2cnn(-c3ccccc3)c2)c1 [DCI-024] | – |
| 9.07% | 66.83% | O=c1c(-c2nc3ccccc3[nH]2)coc2cc(O)ccc12 [DCI-025] | – |
| 98.78% | 66.01% | COc1ccc2ccccc2c1/C=C(\C#N)c1nc2ccccc2[nH]1 [DCI-026] | – |
| 43.67% | 56.25% | Cc1sc2nn[nH]c(=O)c2c1C [DCI-027] | – |
| -6.51% | 40.56% | COc1cc2sc3c(=O)[nH]c4ccccc4c3c2cc1OC [DCI-029] | – |
| 11.57% | 45.02% | CCCC1CCc2c(c3ccccc3[nH]c2=O)O1 (stereo not drawn) [DCI-030] | – |
| 13.99% | 39.14% | O=[N+]([O-])C1C(O)c2ccccc2OC1c1ccccc1 (stereo not drawn) [DCI-031] | – |
| 45.38% | 34.53% | OC1Cc2ccccc2Sc2c(Cl)cccc21 (stereo not drawn) [DCI-033] | – |
| 5.04% | 42.24% | O=C(NCCCNC(=O)c1cc2ccccc2[nH]1)c1ccc(F)cc1 [DCI-034] | – |
| 2.22% | 46.21% | CN(CCCNc1cc(=O)oc2ccccc12)C(=O)c1ccc(F)cc1 [DCI-035] | – |
| 76.32% | 74.58% | Cc1cccc(NC(=S)NC(=O)c2cc3ccccc3o2)n1 [DCI-036] | – |
| 24.85% | 60.63% | CC(=O)c1nc2ccccc2[nH]1 [DCI-037] | – |
| 6.52% | 60.07% | Cc1cc(=O)c2ccc(C(F)(F)F)cc2[nH]1 [DCI-038] | – |
| -1.03% | 36.31% | O=C(CC1Nc2ccccc2NC1=O)NCc1ccccc1 (stereo not drawn) [DCI-039] | – |
| 40.66% | 31.86% | NNC(=O)c1ccc(COc2ccc3c(c2)CCC3)cc1 [DCI-040] | – |
| 72.23% | 50.76% | CCCn1c(=O)c(C(=O)Nc2ccccc2N)c(O)c2ccccc21 [DCI-041] | – |
| 59.00% | 48.79% | O=C1OC(c2ccccc2)c2ccc3ccccc3c21 (stereo not drawn) [DCI-042] | – |
